Measurements as given in patent US20180298332A1, “Microfluidic Model of the Blood Brain Barrier” (EMULATE, Inc., priority 2015, published 2018).

Legend:
[1] = test system: BMECs seeded on a microfluidic device; test: Paracellular permeability assay with Dextran-FITC on chip; type: cell-based, human; conditions: TNF-alpha exposure; Dextran-FITC 4 KDa added to bottom channel, measured in top channel; FIG. 14B
From the text: Brain microvascular endothelial cells (BMECs) constitute the blood-brain barrier (BBB) which forms a dynamic interface between the blood and the central nervous system (CNS) in vivo. This highly specialized interface restricts paracellular diffusion of fluids and solutes including chemicals, toxins and drugs from entering the brain. In this example, fluorescein sodium is used in a paracellular permeability assay of the BMECs seeded on a microfluidic device.
Albumin or Dextran conjugated to a fluorescent probe (e.g., FITC or TRITC) are frequently used to monitor changes in leakage, and thus barrier function. In this case, Dextran-FITC, a green fluorescent molecule of 4 KDa, or sodium fluorescein (a 0.3 KDa molecule), was added to the bottom (“blood side”) channel. Paracellular permeability was calculated by measuring the permeability of the fluorescent molecule on the Top (“brain side”) channel. […] FIG. 14B involves TNF-alpha exposure, but the readout is membrane permeability as measured by Dextran-FITC.

iBMEC barrier function = test: TEER measurement on prototype TEER chips under flow; type: cell-based, human; conditions: chip under flow, then exposure to TNFa; FIG. 14A
Procedure: Cells were plated on tall channel PDMS chips equipped with incorporated gold electrodes on each channel (see FIG. 13A). Post seeding of BMECs, transendothelial electrical resistance was measured by connecting the electrodes to an EVOM2 voltohmmeter (see FIG. 13B). […] The “damaged” chip was a failure due to the TEER-Chips being a prototype.
Higher TEER values generally indicate a tighter barrier, which is typically desirable for a blood-brain barrier.

[2] = test system: cell monolayers with tight junctions; conditions: cited from earlier work
neurons seeded in chip = type: cell-based, human

TNFa
membrane permeability as measured by Dextran-FITC [1]: increase in permeability
iBMEC barrier function (TEER) after exposure of the chips (iBMEC barrier function): weakening of barrier function

Lucifer Yellow
Permeability (Papp) [2]: 0.5 to 1.2 ×10⁻⁶ cm/s

NC1=N[C@H](O)[C@H]2[C@H]3O[C@]4(O)O[C@@H]([C@@H](O)[C@@]2(N1)[C@@H]4O)[C@]3(O)CO [tetrodotoxin]
neuronal calcium flux activity (neurons seeded in chip): ablates this activity
